This passage reports IC50 results from patent publication US10688093B2, “Methods, compositions, and uses of novel Fyn kinase inhibitors” (priority 2015, dated 2020).

This test concerns the target full-length recombinant human FYN A (Homo sapiens (Human), UniProt P06241). In words: ADP-Glo Kinase Assay of FYN kinase inhibition. Type of test: biochemical. The conditions noted are these: primary screen, initial compounds. The text has this: The chemical library was comprised of the SoftFocus ATP-competitive hinge binding compounds described by Harris, C. J., Hill, R. D., Sheppard, D. W., et al., The Design and Application of Target-Focused Compound Libraries. Combinatorial Chemistry and High Throughput Screening 14:521-31 (2011). The specific pharmacore chemistries included SFK52 comprising 6-[R2]-3-[R1]imidazo[1,2-b] pyridazine compounds, SFK33 comprising N-(3-[R2] imidazo [1,2-b] pyridazin-6-yl) [R1] amine compounds, SFK49 comprising N-(5-[R2] imidazo [2,1-b][1,3,4] thiadiazol-2-yl)[R1]-amine compounds, SFK 40 comprising 5-[R2]-3-[R1] pyridin-2-amine compounds, SFK43 comprising 6-[R2]-3-[R1]imidazo[1,2-a]pyrazine compounds, and SFK63. The chemical structures of the initial 600 potential kinase inhibitors are presented in Table 3, with those chosen for additional analysis presented in Table 4. Comparison of the compounds presented in Table 1 and those of Tables 2, 3 and 4, illustrate the novelty of the chemical structures claimed herein.
FYN kinase (10 micrograms) was from the FYN A Kinase Enzyme System (V3571, Promega UK Ltd.), a full-length recombinant human FYN A containing an N-terminal GST tag of about 85 kDa, expressed by bacullovirus in […] insect cells, supplied at a concentration of 0.1 microgram/microliter in 5×reaction buffer. The FYN substrate, a 12 amino acid peptide of the sequence […], containing a single tyrosine phosphorylation site, was custom synthesized (Peptide Synthetics, Peptide Protein Research, Fareham, UK) and supplied as a 4 mg/ml aqueous solution. All other reagents were obtained from Sigma (Sigma-Aldrich, Gillingham, Dorset, UK), with the exception of UltraPure ATP (V9102, Promega UK Ltd.) and the ATP-competitive broad spectrum protein kinase inhibitor staurosporine (569397, Merck Millipore, Watford, Hertfordshire, UK), or as otherwise indicated.
The assay procedure determines the IC50 of each potential FYN kinase inhibitor by measuring the enzyme catalyzed ATP-dependent phosphorylation of the FYN substrate peptide. The ADP-Glo™ Kinase Assay is specifically designed to quantify kinase activity by measuring the ADP produced in the reaction The reaction buffer comprises 40 mM Tris.HCl (pH 7.5), 20 mM MgCl2, 0.1 mg/ml BSA and 5 microM DTT. Individual compounds within the chemical library were dissolved in DMSO at known concentrations. Briefly, 2.5 microliters of reaction buffer containing 3 picograms of FYN kinase and serial dilutions of each potential FYN kinase inhibitor (9 3-fold dilutions of a 10 micromolar top sample) are placed into each well of a 384 well microtiter plate and incubated at room temperature for 30 minutes. An additional 2.5 microliters of reaction buffer containing 100 picograms of the FYN substrate and 12.5 picomoles of ATP are then added to each well and the reaction carried out for 90 minutes at room temperature. The reactions are terminated by addition of 5 microliters of the ADP-Glo™ Reagent component of the ADP-Glo™ Kinase Assay kit to each well. The ADP-Glo™ Reagent comprises an ATP-dependent adenylate cyclase, an inorganic pyrophosphatase and an excess of staurosporine. The adenylate cyclase converts the remaining ATP to cAMP and pyrophospahte, the pyrophosphatase converts the pyrophosphate to phosphate and the staurosporine inhibits the activity of the FYN kinase, the net effect is to remove all residual ATP while preserving the ADP produced by FYN kinase. The terminated reactions are incubated for 40 minutes at room temperature, prior to addition of the Kinase Detection Reagent component of the ADP-Glo™ Kinase Assay kit to each well. The Kinase Detection Reagent comprises pyruvate kinase, phosphoenol pyruvate (PEP), luciferin and luciferase. The pyruvate kinase converts PEP to pyruvate and in the process generates ATP from the residual ADP present in the terminated reaction. […]

Structures are written as SMILES.

Chain of full-length recombinant human FYN A (P06241 whole entry): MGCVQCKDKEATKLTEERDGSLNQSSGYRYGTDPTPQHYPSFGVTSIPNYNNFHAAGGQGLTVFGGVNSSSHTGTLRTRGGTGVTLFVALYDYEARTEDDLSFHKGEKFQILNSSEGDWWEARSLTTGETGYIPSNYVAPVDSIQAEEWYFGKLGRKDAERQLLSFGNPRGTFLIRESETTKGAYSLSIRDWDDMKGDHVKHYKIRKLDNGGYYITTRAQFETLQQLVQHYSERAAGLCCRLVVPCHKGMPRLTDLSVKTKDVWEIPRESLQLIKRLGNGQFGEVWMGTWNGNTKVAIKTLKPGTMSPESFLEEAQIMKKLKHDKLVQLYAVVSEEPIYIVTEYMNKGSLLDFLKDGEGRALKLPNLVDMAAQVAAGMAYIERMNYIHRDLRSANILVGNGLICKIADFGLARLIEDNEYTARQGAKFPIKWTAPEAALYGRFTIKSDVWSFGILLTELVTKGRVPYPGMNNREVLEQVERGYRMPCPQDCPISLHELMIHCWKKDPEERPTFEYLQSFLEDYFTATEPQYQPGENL

Take `Oc1ccc(-c2cnc3ccc(NCc4ccc5c(c4)OCO5)nn23)cc1` [229_0236_0080, 4-[6-(1,3-benzodioxol-5-ylmethyl-amino)imidazo[1,2-b]pyridazin-3-yl]phenol]: the IC50 worked out at 5.67 µM.
Consider `c1ccc(-c2cnc3ccc(NCc4ccncc4)nn23)cc1` [229_0237_0061, 3-phenyl-N-(4-pyridylmethyl) imidazo[1,2-b]pyridazin-6-amine], for which the IC50 turned out to be 4.06 µM.
Regarding `c1ccc2oc(-c3cnc4ccc(NCc5ccncc5)nn34)cc2c1` [229_0237_0073, 3-(benzofuran-2-yl)-N-(4-pyridylmethyl) imidazo[1,2-b]pyridazin-6-amine], the IC50 is 6.45 µM.
With `Nc1cccc(-c2cnc3ccc(NC4CCOCC4)nn23)c1` [229_0242_0005, 3-(3-aminophenyl)-N-tetrahydro-pyran-4-yl-imidazo[1,2-b]pyridazin-6-amine] the figure was 0.746 µM; with `COc1ccc(-c2cnc3ccc(NC4CCOCC4)nn23)cc1OC` [229_0242_0079, 3-(3,4-dimethoxy-phenyl)-N-tetra-hydropyran-4-yl-imidazo[1,2-b]pyridazin-6-amine], 0.547 µM; with `CC(=O)Nc1cccc(-c2cnc3ccc(NC4CCOCC4)nn23)c1` [229_0242_0081, N-[3-[6-(tetrahydro-pyran-4-ylamino)imidazo[1,2-b]pyridazin-3-yl]phenyl] acetamide], 0.588 µM.
Consider `COc1cc(-c2cnc3ccc(NC4CCOCC4)nn23)cc(OC)c1OC` [229_0242_0087, N-tetrahydropyran-4-yl-3-(3,4,5-trimethoxy-phenyl) imidazo[1,2-b]pyridazin-6-amine], for which the IC50 amounted to 0.617 µM.
With `c1cc2cc(-c3cnc4ccc(NC5CCOCC5)nn34)ccc2[nH]1` [229_0242_0204, 3-(1H-indol-5-yl)-N-tetrahydropyran-4-yl-imidazo[1,2-b]pyridazin-6-amine] the figure was 1.17 µM; with `Nc1ccc(-c2cnc3ccc(NC4CCOCC4)nn23)cc1` [229_0242_0333, 3-(4-aminophenyl)-N-tetrahydropyran-4-yl-imidazo[1,2-b]pyridazin-6-amine], 3.13 µM; with `COc1cccc(-c2cnc3ccc(NC4CCOCC4)nn23)c1` [229_0242_4140, 3-(3-methoxy-phenyl)-N-tetrahydro-pyran-4-yl-imidazo[l,2-b]pyridazin-6-amine], 0.87 µM.
With `COc1ccc(CNc2ccc3ncc(-c4ccc(O)c(OC)c4)n3n2)cc1` [229_0244_0314, 2-methoxy-4-[6-[(4-methoxyphenyl)methylamino]imidazo[1,2-b]pyridazin-3-yl]phenol] the figure was 4.01 µM; with `OCCCNc1ccc2ncc(-c3ccc4c(c3)OCO4)n2n1` [229_0248_0068, 3-[[3-(1,3-benzodioxol-5-yl)imidazo[1,2-b]pyridazin-6-yl]amino] propan-1-ol], 0.929 µM.
Then `OCCCNc1ccc2ncc(-c3ccc4[nH]ccc4c3)n2n1` [229_0248_0204, 3-[[3-(1H-indol-5-yl)imidazo[1,2-b]pyridazin-6-yl]amino] propan-1-ol], with 2.72 µM.
Regarding `OCCCNc1ccc2ncc(-c3cccc(C(F)(F)F)c3)n2n1` [229_0248_0312, 3-[[3-[3-(trifluoro-methyl)phenyl]imidazo[1,2-b]pyridazin-6-yl]amino] propan-1-ol], the concentration for half-maximal inhibition (IC50) was determined as 3.41 µM.
With `COc1cc(-c2cnc3ccc(NCCCO)nn23)ccc1O` [229_0248_0314, 4-[6-(3-hydroxy-propylamino)imidazo[1,2-b]pyridazin-3-yl]-2-methoxy-phenol] the figure was 0.329 µM; with `OCCCNc1ccc2ncc(-c3ccc(Oc4ccccc4)cc3)n2n1` [229_0248_1029, 3-[[3-(4-phenoxyphenyl)imidazo[1,2-b]pyridazin-6-yl]amino] propan-1-ol], 5.54 µM; with `CC(C)[C@@H](CO)Nc1ccc2ncc(-c3cccc(N)c3)n2n1` [229_0254_0005, (2S)-2-[[3-(3-aminophenyl)imidazo[1,2-b]pyridazin-6-yl]amino]-3-methyl-butan-1-ol], 1.81 µM.
With `CC(C)[C@@H](CO)Nc1ccc2ncc(-c3ccc4c(c3)OCO4)n2n1` [229_0254_0068, (2S)-2-[[3-(1,3-benzodioxol-5-yl)imidazo[1,2-b]pyridazin-6-yl]amino]-3-methyl-butan-1-ol] the figure was 1.82 µM; with `COc1ccc(-c2cnc3ccc(N[C@H](CO)C(C)C)nn23)cc1OC` [229_0254_0079, (2S)-2-[[3-(3,4-dimethoxyphenyl)imidazo[1,2-b]pyridazin-6-yl]amino]-3-methyl-butan-1-ol], 0.778 µM.
Then `CC(=O)Nc1cccc(-c2cnc3ccc(N[C@H](CO)C(C)C)nn23)c1` [229_0254_0081, N-[3-[6-[[(1S)-1-(hydroxymethyl)-2-methyl-propyl]amino]imidazo[1,2-b]pyridazin-3-yl]phenyl] acetamide], with 0.801 µM; and `CC(C)[C@@H](CO)Nc1ccc2ncc(-c3ccc(C#N)cc3)n2n1` [229_0254_0086, 4-[6-[[(1S)-1-(hydroxymethyl)-2-methyl-propyl]amino]imidazo[1,2-b]pyridazin-3-yl]benzonitrile], with 3.18 µM; and `CC(C)[C@@H](CO)Nc1ccc2ncc(-c3ccc(N)cc3)n2n1` [229_0254_0333, (2S)-2-[[3-(4-aminophenyl)imidazo[1,2-b]pyridazin-6-yl]amino]-3-methyl-butan-1-ol], with 3.05 µM.
As to `c1ccc(CNc2ccc3ncc(-c4ccc5c(c4)OCO5)n3n2)nc1` [229_4007_0068, 3-(1,3-benzodioxol-5-yl)-N-(2-pyridylmethyl) imidazo[1,2-b]pyridazin-6-amine], the IC50 was found to be 0.797 µM.
As to `COc1cccc(-c2cnc3ccc(NCC4CC4)nn23)c1` [229_4051_4140, N-(cyclopropyl-methyl)-3-(3-methoxyphenyl) imidazo[1,2-b]pyridazin-6-amine], the IC50 turned out to be 3.3 µM.
Then `COc1cc(-c2cnc3ccc(NCc4ccc(C)cc4C)nn23)ccc1O` [229_4319_0314, 4-[6-[(2,4-dimethylphenyl)methylamino]imidazo[1,2-b]pyridazin-3-yl]-2-methoxy-phenol], with 5.31 µM; and `COc1cccc(-c2ccc3c(-c4ccc(C(=O)NCCCN(C)C)cc4)n[nH]c3n2)c1F` [267_0180_7936, N-[3-(dimethylamino)propyl]-4-[6-(2-fluoro-3-methoxy-phenyl)-1H-pyrazolo[3,4-b]pyridin-3-yl]benzamide], with 7.34 µM.
As for `COc1ccc(Nc2ccn3ncc(-c4cccc(O)c4)c3n2)cn1` [294_0042_0284, 3-[5-[(6-methoxy-3-pyridyl)amino]pyrazolo[1,5-a]pyrimidin-3-yl]phenol], the IC50 is 3.39 µM.
With `COc1cccc(-c2cnn3ccc(Nc4ccc(OC)nc4)nc23)c1` [294_0042_4140, 3-(3-methoxyphenyl)-N-(6-methoxy-3-pyridyl)pyrazolo [1,5-a]pyrimidin-5-amine] the figure was 5.31 µM.
With `COc1ccc(Nc2ccn3ncc(-c4cccc(C(C)=O)c4)c3n2)cn1` [294_0042_4145, 1-[3-[5-[(6-methoxy-3-pyridyl)amino]pyrazolo[1,5-a]pyrimidin-3-yl]phenyl] ethanone] the figure was 1.64 µM; with `COc1cncc(-c2cnn3ccc(Nc4ccc(N5CCOCC5)cc4)nc23)c1` [294_0088_0196, 3-(5-methoxy-3-pyridyl)-N-(4-morpholino-phenyl)pyrazolo [1,5-a]pyrimidin-5-amine], 2.25 µM.

What is called IC50 is the concentration needed to halve the response being measured.
